Measured values taken from patent US7510850B2, “Isolation of the mitotic spindle matrix and its methods of use” (Carnegie Institution of Washington, priority 2005, dated 2009).

How the values were obtained:
Mouse ES cells = assay: Mitotic arrest of mouse ES cells; type: cell-based; settings: nocodazole 400 nM, about 12 hours
Experimental: FIG. 9: Induction of mitotic spindle matrix assembly by RanGTP and AurA-beads in mouse ES cells. Mouse ES cells were arrested in mitosis using nocodazole. 70-90% mitotic arrest can be achieved after about 12 hours of nocodazole (400 nM) treatment. The ES cells were washed in PBS and the cell pellet was snap frozen in liquid nitrogen. To make the cell lysate, an energy mix, which contains 0.5 mg/ml delta 90 cyclin B, 10 mM ATP, 100 mM creatine phosphate, 0.5 mg/ml creatine kinase, that equals to 5% of the volume of the ES cell pellet was used to resuspend the ES cell pellet. A ˜2-second sonication was used to disrupt the cell followed by centrifugation to make clarified and concentrated ES cell lysates. RanGTP and AurA-beads were added to the lysate to induce the assembly of mitotic spindle matrix. Shown are matrices that were double labeled with tubulin and lamin B, Sox2, or nanog. AurA-beads (2.8 μm) embedded in the matrices serve as reference for the scale.

LB3-matrix = LB3-matrix assembly in egg extracts (AurA-beads plus RanGTP or sperm chromatin); type: biochemical, Xenopus
Experimental: Two methods were used to assay for LB3-matrix assembled in egg extracts. In the first method, spindle assembly was induced with either sperm or AurA-beads plus RanGTP. After incubation, 10 μl of egg extract was diluted into 1 ml XB buffer containing nocodazole (10 μM final concentration) and incubated at room temperature for 10 to 15 minutes to depolymerize MTs. In the second method, egg extracts were incubated with either sperm or AurA-beads plus RanGTP in the presence of 10 μM nocodazole at room temperature for the same time as for spindle assembly reactions. After incubated the egg extracts were diluted into 1 ml BRB80 buffer containing 30% glycerol. LB3-matrix assembled in both methods was spun onto coverslips through 3 ml BRB80 buffer containing 40% glycerol in the same manner as MT spin-down. The LB3-matrix were fixed with methanol (−20° C.) and stained with either polyclonal or monoclonal antibodies to LB3.
To detect the membrane in the lamin B matrix, spindles and LB3-matrices were assembled and spun onto coverslips as described above. The coverslips were incubated in BRB80 containing 20% sucrose and 1 μM Vybrant CM-Dil (Molecular Probes, V22888) for 5 minutes at room temperature and then washed briefly in BRB80 containing 20% sucrose. […]

mitotic spindle = assay: Spindle assembly in Xenopus egg extract; type: biochemical; settings: sperm or RanGTP plus AurA-beads; LB3T, LB3T-nls 10 μM; ΔNLB3, wild-type LB3 2 μM
Experimental: CSF-arrested Xenopus egg extracts, Xenopus sperm, and AurA-beads were prepared as described. […] Spindle assembly reactions were incubated at room temperature for 60 to 90 minutes with sperm or for 10 to 30 minutes with AurA-beads and RanGTP. To immunodeplete LB3, monoclonal antibody or polyclonal antibody to LB3 was coupled to protein A magnetic or agarose beads. IgG from non-immunized rabbits (Jackson Laboratory) was used for mock-depletion. To inhibit LB3 assembly with dominant negative LB3 mutants, LB3T and LB3T-nls were added at 10 μM final concentration, ΔNLB3 and wild-type LB3 were added at 2 μM final concentration to the egg extracts and incubated for 20 minutes before spindle assembly assays.

Molecule: COC(=O)Nc1nc2ccc(C(=O)c3cccs3)cc2[nH]1 [nocodazole]
- mitotic arrest (Mouse ES cells): 70-90%
- sperm around which LB3-matrix was still assembled (LB3-matrix; MT assembly inhibited by nocodazole): more than half

Molecule: triton X100
- lamin B matrix integrity (LB3-matrix; 0.1% in XB containing nocodazole, 10 min at room temperature): completely disrupted

B1: wild-type LB3: lamin B3, the major form of lamin B in Xenopus eggs, 6His fusion protein (protein)
chain: MATSTPSRAREHASAAQSPGSPTRISRMQEKEDLRHLNDRLAAYIERVRSLEADKSLLKIQLEEREEVSSREVTNLRQLYETELADARKLLDQTANERARLQVELGKVREEYRQLQARNSKKENDLSLAQNQLRDLESKLNTKEAELATALSGKRGLEEQLQEQRAQIAGLESSLRDTTKQLHDEMLWRVDLENKMQTIREQLDFQKNIHTQEVKEIKKRHDTRIVEIDSGRRVEFESKLAEALQELRRDHEQQILEYKEHLEKNFSAKLENAQLAAAKNSDYASATREEIMATKLRVDTLSSQLNHYQKQNSALEAKVRDLQDMLDRAHDMHRRQMTEKDREVTEIRQTLQGQLEEYEQLLDVKLALDMEINAYRKMLEGEEQRLKLSPSPSQRSTVSRASTSQTSRLLRGKKRKLDETGRSVTKRSYKVVQQASSTGPVSVEDIDPEGNYVRLLNNTEEDFSLHGWVVKRMHMSLPEIAFKLPCRFILKSSQRVTIWAAGAGAVHSPPTDLVWKSQKTWGTGDNIKITLLDSTGEECAERTLYRVIGEEGETDEDFVEEEELERQFRSQSHQSVDPSC
- spindle assembly (mitotic spindle): neither buffer control nor wild-type LB3 affected
